Experimental data from US20240197682A1, “METHOD FOR TREATING NEUROLOGICAL DISEASES USING SUPRAMOLECULE POLYMER THERAPEUTICS” (The Regents of the University of California, priority 2022, published 2024).

Experiments:
[1] = biological target: T1, YFP-tagged full length 0N4R-Tau P301S aggregates seeded by 416-AD11A lysate (T24 cells) (Homo sapiens, UniProt P10636, P618S); test: Tau-AD high throughput screening (counter screen) in T24 cells; assay type: cell-based; details: T24 cells transfected with 416-AD11A lysate
T1 construct: C-terminally YFP-tagged full length 0N4R-Tau carrying a P301S mutation; expressed in transfected cells
Experimental: A fragment of the Middle Tempral Gyrus (MTG) from Alzheimer's Disease (AD) patient 2217 was resuspended in 9 volumes of PBS (ml/g of brain) and homogenized 3×12 seconds using a probe homogenizer (Thomas Scientific) with disposable Omni Tip plastic homogenizing probes (Thomas Scinetific Cat No 3409Y77) to generate a 10% brain homogenate (10% AD11-BH). The 10% AD11-BH was clarified of insoluble debris by centrifugation at 800×g for 5 minutes. The resulting supernatant was collected and the protein concentration of this clarified BH (AD11-CBH) was determined by bicinchoninic acid assay (BCA) (Thermo Fisher Cat No. 23227). HEK293 cells stably expressing a C-terminally Clover-tagged truncated 4R-Tau^243-382 transgene containing the P301L and V337M mutations and a C-terminally Ruby-tagged truncated 3R-Tau^243-382 transgene containing the L266V and V337M mutations (128/139 cells) were transfected with the AD11-CBH using lipofectamine 2000 (LF2K) (Thermo Fisher Cat No. 11668500). Briefly, 0.32 μl of LF2K were diluted in 5 μl Opti-MEM (Thermo Scientific Cat No 31985070) per well of a 384-well plate and incubated for 5 min at room temperature (RT). This mixture was added to 0.32 μg of AD11-CBH diluted in 5 μl of PBS per well of a 384-well plate and vortex briefly. The transfection mixture was incubated at room temperature for 90 min. The transfection complexes were subsequently added to a single well of a 384-well plate containing 3500 128/139 cells. After 3 days the cells were harvested, counted and plated at a density of 1 cell/well in a 96-well plate. A clonal cell line containing Clover and Ruby positive Tau aggregates was selected and termed 416-AD11A cells. Following the expansion of these 416-AD11A cells, a cell lysate was prepared by freeze/thaw. The cells from a confluent T175 flask were harvested in 1 ml of PBS containing 1× protease inhibitor cocktail by scraping. The cell suspension was subjected to 4 cycles of freezing in liquid nitrogen for 5 minutes followed by thawing at 37° C. for 5 minutes. The resulting cell lysate was centrifuged at 2000 RPM for 10 minutes to remove the cell debris and the protein concentration of the resulting 416-AD11A lysate was determined by BCA assay and aliquots frozen for future use.
HEK293 cells stably expressing C-terminally YFP-tagged full length 0N4R-Tau carrying a P301S mutation (T24 cells) are plated at a density of 4000 cells per well of a 384-well black walled, clear bottom plate (Greiner Cat No 5678-1091Q) in 60 μl of complete DMEM (DMEM (Corning Cat No 10-013-CV), 10% FBS (VWR Cat No 97068-085, 0.5% Penicilin/streptomycin (Gibco Cat No 15140-122)) containing 0.1 μg/ml Hoechst Dye (Thermo Scientific Cat No H3570). Transfection complexes are prepared by diluting 0.15 μg of 416-AD11A lysate or HEK lysate in 5 μl of PBS per well to be transfected and 0.15 μl of Lipofectamine 2000 (LF2K) (ThermoFisher Cat No 11668500) in 5 μl of Opti-MEM per well to be transfected in separate tubes. The pre-diluted 416-AD11A or HEK lysates and LF2K are subsequently mixed and allowed to incubate for 90 minutes at RT. A 10 μl aliquot of the 416-AD11A or HEK transfection complexes is added to the appropriate wells of the 384-well plate containing the T24 cells using the Bravo liquid handling platform (Agilent). Wells A23-P24 of the 384-well plate are transfected with HEK lysate to act as a reference point for spontaneous aggregation of 0N4R^P301S and for transfection related toxicity. The dilution of test compounds is performed using the Bravo liquid handling platform (Agilent). The control is DMSO in the absence of any test compound. Briefly, 1 μl of each test compound (5 mM stock) in the 384-well test plate was transferred to a 384-well plate (Greiner Cat No 781280) containing 61.5 μl of complete DMEM to generate a working stock of compounds at 80 μM. […]

[2] = Parallel Artificial Membrane Permeability Assay (PAMPA); assay type: in vitro ADME; details: for PAMPA: P_app: 200 uM test compound, 4 hr
Experimental: 5 uL of 1% lecithin (VWR 0579) dissolved in n-dodecane (Sigma Aldrich D221104) was applied to each well of a MultiScreen IP PAMPA filter plate (Millipore MAIPSWU10) and allowed to equilibrate for 5 minutes. 300 uL of PBS was added to the acceptor plate and 150 uL of 200 uM test compound dissolved in PBS and 30% ethanol was added to the donor wells before incubating the donor plate in the acceptor plate for 4 hr at 500 rpm. 100 uL was sampled from the donor and acceptor wells and the concentrations were measured by liquid chromatography-mass spectrometry (SCIEX 4500) or UV-VIS plate reader (BMG).

T1 sequence (P10636 1-383 isoform P10636-6 P243S): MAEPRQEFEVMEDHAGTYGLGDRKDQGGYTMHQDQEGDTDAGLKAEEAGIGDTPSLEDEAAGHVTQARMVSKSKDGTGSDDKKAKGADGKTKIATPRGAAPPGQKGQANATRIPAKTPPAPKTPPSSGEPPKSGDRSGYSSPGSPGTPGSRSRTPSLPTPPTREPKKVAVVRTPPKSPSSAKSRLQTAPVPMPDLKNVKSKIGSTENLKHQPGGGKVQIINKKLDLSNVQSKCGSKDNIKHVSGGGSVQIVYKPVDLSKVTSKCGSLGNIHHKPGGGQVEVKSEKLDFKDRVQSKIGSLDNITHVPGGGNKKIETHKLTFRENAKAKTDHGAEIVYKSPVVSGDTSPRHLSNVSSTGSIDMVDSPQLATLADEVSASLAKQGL

| Structure (SMILES) | AD Tau Aggregates (% control) [1] [% control] | other results |
| --- | --- | --- |
| CNC(=O)c1ncc2c(-c3ccc(F)cc3)nn(Cc3ccc(F)cc3)c2n1 [Compound 261] | 87 | – |
| CNC(=O)c1ncc2c(n1)c(-c1ccc(Cl)cc1)nn2-c1ccnc(C(C)(F)F)n1 [Compound 288, 3-(4-chlorophenyl)-1-[2-(1,1-difluoroethyl)pyrimidin-4-yl]-N-methyl-pyrazolo[4,3-d]pyrimidine-5-carboxamide] | 98 | Papp at 4 hr, 200 uM ([2]; PAMPA, pH 5.0, 200 uM test compound, read-out: PAMPA: P_app): > 50 ×10⁻⁶ cm/s; PAMPA: P_app ([2]; pH 7.4): >50 ×10e−6 cm/sec |
| CCc1ccccc1-c1nn(-c2ccc(F)cc2)c2nc(C(=O)NC)ncc12 [Compound 245] | 120 | PAMPA: P_app ([2]; pH 5.0): >50 ×10e−6 cm/sec; PAMPA: P_app ([2]; pH 7.4): >50 ×10e−6 cm/sec |
| CNc1nc(=O)n(-c2nc(-c3cccc(C)c3)oc2-c2cc(Cl)cs2)cc1F [Compound 135, 1-(5-(4-chlorothiophen-2-yl)-2-(m-tolyl)oxazol-4-yl)-5-fluoro-4-(methylamino)pyrimidin-2(1H)-one] | 100 | – |
| O=c1nc2c(ccn2C(F)(F)F)cn1-c1nc(N2Cc3ccccc3C2)oc1-c1ccc(F)cc1 [Compound 242] | 99 | PAMPA: P_app ([2]; pH 7.4): 5.72 ×10e−6 cm/sec |
| COC(=O)Nc1ncc2c(-c3ccccc3)nn(-c3ccccc3)c2n1 [Compound 274] | 94 | PAMPA: P_app ([2]; pH 5.0): 4.6 ×10e−6 cm/sec; PAMPA: P_app ([2]; pH 7.4): 6.3 ×10e−6 cm/sec |
| CNC(=O)c1ncc2c(-c3ccccc3)nn(-c3ccc(F)cc3)c2n1 [Compound 246] | 120 | PAMPA: P_app ([2]; pH 5.0): >50 ×10e−6 cm/sec; PAMPA: P_app ([2]; pH 7.4): >50 ×10e−6 cm/sec |
| CC(O)COc1ccc(-c2nc(-n3cc4ccoc4nc3=O)c(-c3ccc(F)cc3)o2)cc1 (centres unmarked) [Compound 182, 3-[5-(4-fluorophenyl)-2-[4-(2-hydroxypropoxy)phenyl]-1,3-oxazol-4-yl]-2H,3H-furo[2,3-d]pyrimidin-2-one] | 93 | – |
| CC(=O)Nc1ncc2c(-c3ccccc3C#N)nn(Cc3ccccc3)c2n1 [Compound 268] | 105 | – |
| CC(=O)Nc1ncc2c(-c3ccccc3)nn(C(C)c3ccccc3)c2n1 (centres unmarked) [Compound 265] | 110 | – |
| CNC(=O)c1ncc2c(-c3ccc(F)cc3)nn(CC3CCCCC3)c2n1 [Compound 258] | 110 | – |
| CNc1ncc2c(-c3ccccc3)nn(-c3ccccc3)c2n1 [Compound 286, N-methyl-1,3-diphenyl-1H-pyrazolo[3,4-d]pyrimidin-6-amine] | 100 | – |
| CNc1nc(=O)n(-c2nc(-c3ccc(Cl)cc3)oc2-c2ccc(Cl)c(F)c2)cc1F.Cl [Compound 126, 1-(5-(4-chloro-3-fluorophenyl)-2-(4-chlorophenyl)oxazol-4-yl)-5-fluoro-4-(methylamino)pyrimidin-2(1H)-one hydrochloride] | 93 | – |
| CNC(=O)c1ncc2c(-c3cc4c(cnn4C)cc3F)nn(Cc3ccccc3)c2n1 [Compound 253] | 96 | – |
| CNC(=O)c1ncc2c(N3CCCC3)nn(-c3ccc(F)cc3)c2n1 [Compound 247, 1-(4-fluorophenyl)-N-methyl-3-(pyrrolidin-1-yl)-1H-pyrazolo[3,4-d]pyrimidine-6-carboxamide] | 120 | – |
| CNC(=O)c1ncc2c(-c3ccccc3)cn(-c3ccccc3)c2n1 [Compound 291, N-methyl-5,7-diphenyl-7H-pyrrolo[2,3-d]pyrimidine-2-carboxamide] | 110 | – |
| CNC(=O)c1ncc2c(-c3cccc4c3OC(F)(F)O4)nn(Cc3ccccc3)c2n1 [Compound 254] | 100 | – |
| CNc1nc(=O)n(-c2nc(-c3cccc(C)c3)oc2-c2ccc(F)c(F)c2)cc1F.Cl [Compound 133, 1-(5-(3,4-difluorophenyl)-2-(m-tolyl)oxazol-4-yl)-5-fluoro-4-(methylamino)pyrimidin-2(1H)-one hydrochloride] | 92 | – |
| CNC(=O)c1ncc2c(-c3ccc(F)cc3)nn(C3CCc4ccc(F)cc43)c2n1 (centres unmarked) [Compound 257, 1-(6-fluoro-2,3-dihydro-1H-inden-1-yl)-3-(4-fluorophenyl)-N-methyl-1H-pyrazolo[3,4-d]pyrimidine-6-carboxamide] | 100 | – |
| CC(=O)Cc1nccc2cc(-c3nc(-n4ccc5cccnc5c4=O)c(-c4ccc(C(F)(F)F)cc4)o3)ccc12 [Compound 176, 7-(2-(1-(2-oxopropyl)isoquinolin-6-yl)-5-(4-(trifluoromethyl)phenyl)oxazol-4-yl)-1,7-naphthyridin-8(7H)-one] | 96 | – |
| Cc1cc(-c2nc(-n3cc4ccn(C5CC5)c4nc3=O)c(-c3ccc(F)c(F)c3)o2)ncc1F [Compound 234] | 85 | – |
| CNc1nc(=O)n(-c2nc(-c3ccc(C)s3)oc2-c2ccc(Cl)c(F)c2)cc1F [Compound 132, 1-(5-(4-chloro-3-fluorophenyl)-2-(5-methylthiophen-2-yl)oxazol-4-yl)-5-fluoro-4-(methylamino)pyrimidin-2(1H)-one] | 95 | – |
| Cc1cc(-c2nc(-n3cc4ccn(C5CC5)c4nc3=O)c(-c3ccc(Cl)c(F)c3)o2)ccn1 [Compound 232, 3-[5-(4-chloro-3-fluorophenyl)-2-(2-methylpyridin-4-yl)-1,3-oxazol-4-yl]-7-cyclopropyl-2H,3H,7H-pyrrolo[2,3-d]pyrimidin-2-one] | 91 | – |
| CNC(=O)c1ncc2c(-c3ccc(F)cc3)nn(Cc3cccc(F)c3)c2n1 [Compound 260] | 95 | – |
| CCNc1nc(=O)n(-c2nc(-c3ccc(Cl)cc3)oc2-c2ccc(Cl)c(F)c2)cc1F [Compound 127, 1-(5-(4-chloro-3-fluorophenyl)-2-(4-chlorophenyl)oxazol-4-yl)-4-(ethylamino)-5-fluoropyrimidin-2(1H)-one] | 105 | – |
| CNC(=O)c1ncc2c(-c3ccc(F)cc3)nn(Cc3ccnc(F)c3)c2n1 [Compound 259] | 99 | – |
